Test [1] addresses GDP-bound HRAS wild-type protein (Homo sapiens, UniProt P01112). In words: Binding to HRAS by surface plasmon resonance (SPR), Single Cycle Kinetics. To be noted: for HRAS/KRAS (ratio of KD value with respect to HRAS to KD value with respect to KRAS) / HRAS/KRAS (ratio of KD value for HRAS to KD value for KRAS): SPR, GDP-bound HRAS wild-type protein vs GDP-bound KRAS wild-type protein; for HRAS/KRAS (ratio of KD value with respect to GDP-bound HRAS wild-type protein to KD value with respect to KRAS): SPR KD ratio HRAS/KRAS, class symbols. Background: SPR reads the build-up and loss of mass on a sensor chip optically.

The target of test [2] is GDP-bound KRAS wild-type protein (Homo sapiens, UniProt P01116). Put plainly: Binding to KRAS by surface plasmon resonance (SPR), Single Cycle Kinetics. To be noted: GDP-bound KRAS wild-type protein, read-out: KRAS KD.
Chain of GDP-bound KRAS wild-type protein (P01116 whole entry): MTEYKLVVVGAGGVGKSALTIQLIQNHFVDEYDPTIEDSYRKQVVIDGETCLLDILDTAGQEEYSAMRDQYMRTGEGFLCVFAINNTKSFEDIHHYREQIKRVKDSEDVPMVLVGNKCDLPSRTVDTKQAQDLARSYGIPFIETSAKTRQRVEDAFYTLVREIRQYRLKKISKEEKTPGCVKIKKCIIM
For test [3], the target named is GDP-bound NRAS wild-type protein (Homo sapiens, UniProt P01111). In words: Binding to NRAS by surface plasmon resonance (SPR), Single Cycle Kinetics. To be noted: for NRAS/KRAS (ratio of KD value with respect to NRAS to KD value with respect to KRAS) / NRAS/KRAS (ratio of KD value for NRAS to KD value for KRAS): SPR, GDP-bound NRAS wild-type protein vs GDP-bound KRAS wild-type protein; for NRAS/KRAS (ratio of KD value with respect to GDP-bound NRAS wild-type protein to KD value with respect to KRAS): SPR KD ratio NRAS/KRAS, class symbols.
Chain of GDP-bound NRAS wild-type protein (P01111 whole entry): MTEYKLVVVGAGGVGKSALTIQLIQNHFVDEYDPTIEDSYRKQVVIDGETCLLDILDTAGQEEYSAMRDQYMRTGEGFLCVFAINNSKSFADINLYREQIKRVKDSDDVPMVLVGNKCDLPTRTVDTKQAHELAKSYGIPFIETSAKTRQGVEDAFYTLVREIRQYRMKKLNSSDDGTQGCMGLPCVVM

Setting [4] is: SPR Single Cycle Kinetics, 1:1 binding model.

Seven molecules from patent US20240158446A1, “CYCLIC COMPOUND HAVING SELECTIVE INHIBITORY ACTION ON KRAS OVER HRAS AND NRAS” (CHUGAI SEIYAKU KABUSHIKI KAISHA, priority 2021, published 2024) can be followed below.

Usually Kd stands for the constant that tells how readily two partners part at equilibrium.

Molecules are shown by their SMILES. Like-named read-outs stand apart in the source and are kept apart here. Where a SMILES comes first, the peptide text is derived from it. Bridges are numbered along the chain shown (N, C = ends). [ ]: non-standard residue; d: D form. hPhe(3-Cl-4-CF3) = N[C@@H](CCc1ccc(C(F)(F)F)c(Cl)c1)C(=O)O; NPrPhe(4-CF3) = CCCN[C@@H](Cc1ccc(C(F)(F)F)cc1)C(=O)O; NMeGly(cPent) = CN[C@H](C(=O)O)C1CCCC1; Pro(4,4-F2) = O=C(O)[C@@H]1CC(F)(F)CN1; Hyp = O=C(O)[C@@H]1C[C@@H](O)CN1; NMeD = CN[C@@H](CC(=O)O)C(=O)O; NMeL = CN[C@@H](CC(C)C)C(=O)O; NMeA = CN[C@@H](C)C(=O)O; Ac5c = NC1(C(=O)O)CCCC1; Aze = O=C(O)[C@@H]1CCN1; Ac4c = NC1(C(=O)O)CCC1; NEtG = CCNCC(=O)O; Sar = CNCC(=O)O

Chain of GDP-bound HRAS wild-type protein (P01112 whole entry): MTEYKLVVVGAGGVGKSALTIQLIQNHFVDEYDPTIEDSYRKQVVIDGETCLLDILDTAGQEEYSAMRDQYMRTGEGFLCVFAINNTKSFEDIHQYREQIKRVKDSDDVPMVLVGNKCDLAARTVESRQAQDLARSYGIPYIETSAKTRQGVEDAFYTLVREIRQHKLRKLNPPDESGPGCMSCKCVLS

In the case of `CCCN1C(=O)[C@@H]2CCN2C(=O)[C@H](C)N(C)C(=O)[C@H]([C@@H](C)CC)NC(=O)[C@H](CC(C)C)N(C)C(=O)C[C@@H](C(=O)N(C)C)N(C)C(=O)[C@H](C2CCCC2)N(C)C(=O)C2(CCC2)NC(=O)[C@@H]2CC(F)(F)CN2C(=O)[C@H](CCc2ccc(C(F)(F)F)c(Cl)c2)NC(=O)CN(C)C(=O)[C@@H]1Cc1ccc(C(F)(F)F)cc1` [PP0437] ([NMeL]I[NMeA][Aze][NPrPhe(4-CF3)][Sar][hPhe(3-Cl-4-CF3)][Pro(4,4-F2)][Ac4c][NMeGly(cPent)][NMeD]-NMe2; lactam N-11), the “HRAS/KRAS (ratio of KD value with respect to HRAS to KD value with respect to KRAS)” value in test [1] is “B (a compound having 3 or more and less than 10 is denoted as B)”. Besides, in test [2] (setting [4]), the dissociation constant Kd turned out to be 0.036 nM. Also, the “NRAS/KRAS (ratio of KD value with respect to NRAS to KD value with respect to KRAS)” value in test [3] was “C (A compound having a KD ratio of 0.1 or more and less than 3 is denoted as C)”.

As for `CC[C@H](C)[C@@H]1NC(=O)[C@H](CC(C)C)N(C)C(=O)C[C@@H](C(=O)N2CCOCC2)N(C)C(=O)[C@H](CC(F)(F)F)N(C)C(=O)C2(CCCC2)NC(=O)[C@@H]2CCCN2C(=O)[C@H](CCc2cc(F)c(C(F)(F)F)c(F)c2)NC(=O)CN(C)C(=O)[C@H](Cc2ccc(C(F)(F)F)cc2)N2CCCC[C@@H](C2=O)N(C)C(=O)CN(C)C1=O` [PP0568], the “HRAS/KRAS (ratio of KD value with respect to HRAS to KD value with respect to KRAS)” value in test [1] was “B (a compound having 3 or more and less than 10 is denoted as B)”. The Kd in test [2] (setting [4]) amounted to 1.1 nM. Further, the “NRAS/KRAS (ratio of KD value with respect to NRAS to KD value with respect to KRAS)” value in test [3] was “B (a compound having 3 or more and less than 10 is denoted as B)”.

As to `CCO[C@@H]1C[C@H]2C(=O)NC3(CCC3)C(=O)N(C)[C@@H](C3CCCC3)C(=O)N3CCC[C@@H]3CC(=O)N(C)[C@@H](CC)C(=O)N[C@@H]([C@@H](C)CC)C(=O)N(C)CC(=O)N(C)[C@H]3C/C=C\CCN(C3=O)[C@@H](Cc3ccc(C(F)(F)F)cc3)C(=O)N(C)CC(=O)N[C@@H](CCc3cc(F)c(C(F)(F)F)c(F)c3)C(=O)N2C1` [PP1097, (2S,8S,12R,14S,20S,26R,30S,33S,39S,41Z)-20-cyclopentyl-8-[2-[3,5-difluoro-4-(trifluoromethyl)phenyl]ethyl]-12-ethoxy-30-ethyl-4,19,29,35,38-pentamethyl-33-[(1 S)-1-methylpropyl]-2-[[4-(trifluoromethyl)phenyl]methyl]spiro[1,4,7,10,16,19,22,29,32,35,38-undecazatetracyclo[37.5.1.0^10,14.022,26]pentatetracont-41-ene-17,1′-cyclobutane]-3,6,9,15,18,21,28,31,34,37,45-undecone], the “HRAS/KRAS (ratio of KD value for HRAS to KD value for KRAS)” value in test [1] is “B (a compound having 3 or more and less than 10 is denoted as B)”. Further, in test [2] (SPR, Single Cycle Kinetics), the Kd was 0.12 nM. For the same molecule, in test [3], the “NRAS/KRAS (ratio of KD value for NRAS to KD value for KRAS)” value was “B (a compound having 3 or more and less than 10 is denoted as B)”.

`CCO[C@@H]1C[C@H]2C(=O)NC3(CCC3)C(=O)N(C)[C@@H](C(CC)CC)C(=O)N(C)[C@H](C(=O)N3CCCCC3)CC(=O)N(C)[C@H]3CCC/C=C/c4ccc(cc4)C[C@@H](C(=O)N(C)CC(=O)N[C@@H](CCc4cc(F)c(C(F)(F)F)c(F)c4)C(=O)N2C1)N1CC/C=C\C[C@@H](C1=O)N(C)C(=O)CN(C1CC1)C(=O)[C@H]([C@@H](C)CC)NC3=O` [PP2956]: the “HRAS/KRAS (ratio of KD value with respect to GDP-bound HRAS wild-type protein to KD value with respect to KRAS)” value in test [1] was “A (a compound having 10 or more and less than 20 is denoted as A)”. Moreover, the Kd in test [2] (setting [4]) was 1.1 nM. For the same molecule, in test [3], the “NRAS/KRAS (ratio of KD value with respect to GDP-bound NRAS wild-type protein to KD value with respect to KRAS)” value is listed as “AA (a compound having 20 or more is denoted as AA)”.

For `CC[C@H](C)[C@@H]1NC(=O)[C@H](CC(C)C)N(C)C(=O)C[C@@H](C(=O)N2CCOCC2)N(CC)C(=O)[C@H](C2CCCC2)N(C)C(=O)C2(CCCC2)NC(=O)[C@@H]2CCCN2C(=O)[C@H](CCc2ccc(C(F)(F)F)c(Cl)c2)NC(=O)CN(C)C(=O)[C@H](Cc2ccc(F)cc2)N2CCCCC[C@@H](C2=O)N(C)C(=O)CN(C)C1=O` [PP0970], the “HRAS/KRAS (ratio of KD value for HRAS to KD value for KRAS)” value in test [1] was “B (a compound having 3 or more and less than 10 is denoted as B)”. For the same molecule, the Kd in test [2] (SPR, Single Cycle Kinetics) stood at 2.2 nM. Further, the “NRAS/KRAS (ratio of KD value for NRAS to KD value for KRAS)” value in test [3] is “B (a compound having 3 or more and less than 10 is denoted as B)”.

Take `CCC[C@H]1C(=O)N[C@@H]([C@@H](C)CC)C(=O)N(C)CC(=O)N(C)[C@H]2C/C=C\CCN(C2=O)[C@@H](Cc2ccc(C(F)(F)F)cc2)C(=O)N(C)CC(=O)N[C@@H](CCc2cc(F)c(C(F)(F)F)c(F)c2)C(=O)N2C[C@H](OCC)C[C@H]2C(=O)NC2(CC(C)(C)C2)C(=O)N(C)[C@@H](CC2CC2)C(=O)N(C)[C@H](C(=O)N(C)C)CC(=O)N1C` [PP2807]: in test [1], the “HRAS/KRAS (ratio of KD value with respect to GDP-bound HRAS wild-type protein to KD value with respect to KRAS)” value was “A (a compound having 10 or more and less than 20 is denoted as A)”. In test [2] (setting [4]), the Kd was found to be 0.34 nM. Also, the “NRAS/KRAS (ratio of KD value with respect to GDP-bound NRAS wild-type protein to KD value with respect to KRAS)” value in test [3] is reported as “AA (a compound having 20 or more is denoted as AA)”.

For the molecule `CCCN1C(=O)CN(C)C(=O)CN(CC)C(=O)[C@H]([C@@H](C)CC)NC(=O)[C@H](CC(C)C)N(C)C(=O)C[C@@H](C(=O)N(C)C)NC(=O)[C@H](C2CCCC2)N(C)C(=O)C2(CCCC2)NC(=O)[C@@H]2C[C@@H](OCC)CN2C(=O)[C@H](CCc2ccc(C(F)(F)F)c(Cl)c2)NC(=O)CN(C)C(=O)[C@@H]1Cc1ccc(C(F)(F)F)cc1` [PP0371] ([NMeL]I[NEtG][Sar][NPrPhe(4-CF3)][Sar][hPhe(3-Cl-4-CF3)][Hyp](Et)[Ac5c][NMeGly(cPent)]D-NMe2; lactam N-11), the “HRAS/KRAS (ratio of KD value for HRAS to KD value for KRAS)” value in test [1] was “C (A compound having a KD ratio of 0.1 or more and less than 3 is denoted as C)”. Also, in test [2] (setting [4]), the Kd is 0.48 nM. Moreover, the “NRAS/KRAS (ratio of KD value for NRAS to KD value for KRAS)” value in test [3] was “B (a compound having 3 or more and less than 10 is denoted as B)”.
